The assay addresses T1, LXRβ (Homo sapiens, UniProt P55055).
T1 construct: Co-transfection expression plasmids, comprising full-length LXRα (pCMX-h LXRα[…] or LXRβ (pCMX-hLXRβ)); expressed in transfected cells; host or cells: CV-1 African Green Monkey Kidney Cells
T1 sequence (P55055 1-460): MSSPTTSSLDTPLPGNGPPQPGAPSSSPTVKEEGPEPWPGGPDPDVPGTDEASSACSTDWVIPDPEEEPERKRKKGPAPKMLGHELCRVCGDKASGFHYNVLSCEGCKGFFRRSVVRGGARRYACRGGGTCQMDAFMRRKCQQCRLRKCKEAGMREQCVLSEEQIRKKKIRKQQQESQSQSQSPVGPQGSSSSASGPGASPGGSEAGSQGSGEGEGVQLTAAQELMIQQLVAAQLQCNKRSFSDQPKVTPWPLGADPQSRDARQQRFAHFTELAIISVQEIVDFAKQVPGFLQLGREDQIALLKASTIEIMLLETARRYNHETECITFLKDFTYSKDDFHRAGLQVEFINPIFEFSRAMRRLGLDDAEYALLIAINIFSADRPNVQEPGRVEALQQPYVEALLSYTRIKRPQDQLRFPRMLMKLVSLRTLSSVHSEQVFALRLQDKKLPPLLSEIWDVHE
T1 sequence (P19793 1-462 partner): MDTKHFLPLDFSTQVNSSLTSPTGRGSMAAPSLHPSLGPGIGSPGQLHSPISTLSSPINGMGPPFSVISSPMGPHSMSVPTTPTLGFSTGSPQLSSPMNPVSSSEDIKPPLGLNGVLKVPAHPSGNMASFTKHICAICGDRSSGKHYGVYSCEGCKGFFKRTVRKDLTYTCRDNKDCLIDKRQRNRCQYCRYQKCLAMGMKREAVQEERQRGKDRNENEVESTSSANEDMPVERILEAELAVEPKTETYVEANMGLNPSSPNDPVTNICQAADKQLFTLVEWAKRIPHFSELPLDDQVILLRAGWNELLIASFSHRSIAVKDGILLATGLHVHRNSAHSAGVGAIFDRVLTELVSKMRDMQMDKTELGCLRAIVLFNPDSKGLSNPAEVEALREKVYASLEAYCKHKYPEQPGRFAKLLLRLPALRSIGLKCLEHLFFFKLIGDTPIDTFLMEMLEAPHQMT
Briefly: Co-transfection assay (LXRE luciferase reporter), LXRβ. It counts as cell-based. The settings on record: for EC50: CV-1 cells transfected with pCMX-hLXRβ and LXREx1-Tk-Luciferase, 20 hours incubation; for Emax: LXRβ co-transfection, relative to high control 1-(2,4-difluorobenzyl)-2-oxo-6-(4-phenoxyphenyl)-4-(trifluoromethyl)-1,2-dihydropyridine-3-carbonitrile, read-out: % Efficacy. The essentials: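 Luciferase signal from an LXREx1-Tk reporter was measured after transfected CV-1 cells (full-length hLXRβ, endogenous RXR) were treated with compounds for 20 h at 37 °C, ≤0.5% DMSO. EC50 came from four-parameter fits of 11-point ½-log curves; % efficacy versus a reference agonist maximum.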

SMILES strings stand for the structures.

With `Cc1nc(C(F)(F)F)cn1-c1ccc(-c2cccc(S(C)(=O)=O)c2)cc1-n1nncc1-c1ccc(F)cc1` [Example 43, 5-(4-fluorophenyl)-1-{3′-(methylsulfonyl)-4-[2-methyl-4-(trifluoromethyl)-1H-imidazol-1-yl]biphenyl-3-yl}-1H-1,2,3-triazole], the half-maximal effective concentration (EC50) is 1140 nM and the Emax turned out to be 85%.
For the compound `Cc1nc(C(F)(F)F)cn1-c1ccc(-c2cccc(S(N)(=O)=O)c2)cc1-n1nncc1-c1ccc(OC(F)(F)F)cc1` [Example 44, 4′-[2-methyl-4-(trifluoromethyl)-1H-imidazol-1-yl]-3′-(5-{4-[(trifluoromethyl)oxy]phenyl}-1H-1,2,3-triazol-1-yl)biphenyl-3-sulfonamide], the EC50 was determined as 1270 nM and the Emax was determined as 95%.
`Cc1nc(C(F)(F)F)cn1-c1ccc(-c2cccc(S(C)(=O)=O)c2)cc1-n1nncc1-c1ccc2[nH]ccc2c1` [Example 45, 5-(1-{3′-(methylsulfonyl)-4-[2-methyl-4-(trifluoromethyl)-1H-imidazol-1-yl]biphenyl-3-yl}-1H-1,2,3-triazol-5-yl)-1H-indole]: the midpoint of the response, the EC50, lay at 1840 nM and the Emax came out at 53%.
On to `Cc1nc(C(F)(F)F)cn1-c1ccc(-c2cccc(S(C)(=O)=O)c2)cc1-n1nncc1-c1ccc(F)c(OC(F)(F)F)c1` [Example 46, 5-{4-fluoro-3-[(trifluoromethyl)oxy]phenyl}-1-{3′-(methylsulfonyl)-4-[2-methyl-4-(trifluoromethyl)-1H-imidazol-1-yl]biphenyl-3-yl}-1H-1,2,3-triazole], for which the concentration for a half-maximal effect (EC50) is 2310 nM and the Emax is 62%.
The like results for `Cc1nc(C(F)(F)F)cn1-c1ccc(-c2cccc(S(C)(=O)=O)c2)cc1-n1nncc1-c1ccc(C#N)cc1` [Example 47, 4-(1-{3′-(methylsulfonyl)-4-[2-methyl-4-(trifluoromethyl)-1H-imidazol-1-yl]biphenyl-3-yl}-1H-1,2,3-triazol-5-yl)benzonitrile] were, in that order, 2540 nM and 64%.
Taken in the same sequence, the figures for `Cc1ccc(-c2cnnn2-c2cc(-c3cc(F)c(CO)c(S(C)(=O)=O)c3)ccc2-n2cc(C(F)(F)F)nc2C)cc1` [Example 48, {3-fluoro-3′-[5-(4-methylphenyl)-1H-1,2,3-triazol-1-yl]-5-(methylsulfonyl)-4′-[2-methyl-4-(trifIuoromethyl)-1H-imidazol-1-yl]biphenyl-4-yl}methanol] were 158 nM and 89%.
For the compound `Cc1nc(C(F)(F)F)cn1-c1ccc(-c2cccc(S(C)(=O)=O)c2)cc1-n1nncc1-c1ccc(OC(F)(F)F)cc1` [Example 49, 1-{3′-(methylsulfonyl)-4-[2-methyl-4-(trifluoromethyl)-1H-imidazol-1-yl]biphenyl-3-yl}-5-{4-[(trifluoromethyl)oxy]phenyl}-1H-1,2,3-triazole], the EC50 came out at 164 nM and the Emax was found to be 105%.
In the case of `Cc1ccc(-c2cnnn2-c2cc(-c3cccc(S(C)(=O)=O)c3)ccc2-n2cc(C(F)(F)F)nc2C)cc1` [Example 50, 5-(4-methylphenyl)-1-{3′-(methylsulfonyl)-4-[2-methyl-4-(trifluoromethyl)-1H-imidazol-1-yl]biphenyl-3-yl}-1H-1,2,3-triazole], the concentration for a half-maximal effect (EC50) was 171 nM and the Emax was determined as 88%.
For the compound `Cc1nc(C(F)(F)F)cn1-c1ccc(-c2cccc(S(C)(=O)=O)c2)cc1-n1nncc1-c1ccc(N2CCCC2)cc1` [Example 51, 1-{3′-(methylsulfonyl)-4-[2-methyl-4-(trifluoromethyl)-1H-imidazol-1-yl]biphenyl-3-yl}-5-(4-pyrrolidin-1-ylphenyl)-1H-1,2,3-triazole], the EC50 was 158 nM and the Emax came out at 107%.
The like results for `Cc1nc(C(F)(F)F)cn1-c1ccc(-c2cc(F)c(CO)c(S(C)(=O)=O)c2)cc1-n1nncc1-c1ccc2c(c1)OC(F)(F)O2` [Example 52, {3′-[5-(2,2-difluoro-1,3-benzodioxol-5-yl)-1H-1,2,3-triazol-1-yl]-3-fluoro-5-(methylsulfonyl)-4′-[2-methyl-4-(trifluoromethyl)-1H-imidazol-1-yl]biphenyl-4-yl}methanol] were, in that order, 172 nM and 82%.
The like results for `Cc1nc(C(F)(F)F)cn1-c1ccc(-c2cccc(S(C)(=O)=O)c2)cc1-n1nncc1-c1ccc(OC(F)(F)F)c(Cl)c1` [Example 53, 5-{3-chloro-4-[(trifluoromethyl)oxy]phenyl}-1-{3′-(methylsulfonyl)-4-[2-methyl-4-(trifluoromethyl)-1H-imidazol-1-yl]biphenyl-3-yl}-1H-1,2,3-triazole] were, in that order, 175 nM and 90%.
Taken in the same sequence, the figures for `Cc1nc(C(F)(F)F)cn1-c1ccc(-c2cccc(S(C)(=O)=O)c2)cc1-n1nncc1-c1ccc(OC(F)(F)F)c(F)c1` [Example 54, 5-{3-fluoro-4-[(trifluoromethyl)oxy]phenyl)-1-{3′-(methylsulfonyl)-4-[2-methyl-4-(trifluoromethyl)-1H-imidazol-1-yl]biphenyl-3-yl}-1H-1,2,3-triazole] were 148 nM and 84%.
For `Cc1nc(C(F)(F)F)c(Cl)n1-c1ccc(-c2cccc(S(C)(=O)=O)c2)cc1-n1nncc1-c1ccc(OC(F)(F)F)cc1` [Example 55, 1-{4-[5-chloro-2-methyl-4-(trifluoromethyl)-1H-imidazol-1-yl]-3′-(methylsulfonyl)biphenyl-3-yl}-5-{4-[(trifluoromethyl)oxy]phenyl}-1H-1,2,3-triazole], the midpoint of the response, the EC50, lay at 180 nM and the Emax was found to be 110%.
The like results for `Cc1nc(C(F)(F)F)cn1-c1ccc(-c2cc(F)c(CO)c(S(C)(=O)=O)c2)cc1-n1nncc1-c1ccc(OC(F)(F)F)c(F)c1` [Example 56, {3-fluoro-3′-(5-{3-fluoro-4-[(trifluoromethyl)oxy]phenyl}-1H-1,2,3-triazol-1-yl)-5-(methylsulfonyl)-4′-[2-methyl-4-(trifluoromethyl)-1H-imidazol-1-yl]biphenyl-4-yl}methanol] were, in that order, 133 nM and 101%.
Consider `Cc1cc(OC(F)(F)F)ccc1-c1cnnn1-c1cc(-c2cccc(S(C)(=O)=O)c2)ccc1-n1cc(C(F)(F)F)nc1C` [Example 57, 1-{3′-(methylsulfonyl)-4-[2-methyl-4-(trifluoromethyl)-1H-imidazol-1-yl]biphenyl-3-yl}-5-{2-methyl-4-[(trifluoromethyl)oxy]phenyl}-1H-1,2,3-triazole], for which the EC50 came to 215 nM and the Emax came out at 82%.
Taken in the same sequence, the figures for `Cc1nc(C(F)(F)F)cn1-c1ccc(-c2cc(F)c(CO)c(S(C)(=O)=O)c2)cc1-n1nncc1-c1ccc(Cl)cc1` [Example 58, {3′-[5-(4-chlorophenyl)-1H-1,2,3-triazol-1-yl]-3-fluoro-5-(methylsulfonyl)-4′-[2-methyl-4-(trifluoromethyl)-1H-imidazol-1-yl]biphenyl-4-yl}methanol] were 217 nM and 78%.
As to `Cc1nc(C(F)(F)F)c(Cl)n1-c1ccc(-c2cccc(S(C)(=O)=O)c2)cc1-n1nncc1-c1ccc(Cl)cc1Cl` [Example 59, 1-{4-[5-chloro-2-methyl-4-(trifluoromethyl)-1H-imidazol-1-yl]-3′-(methylsulfonyl)biphenyl-3-yl}-5-(2,4-dichlorophenyl)-1H-1,2,3-triazole], the EC50 stood at 218 nM and the Emax was found to be 95%.
With `Cc1nc(C(F)(F)F)c(Cl)n1-c1ccc(-c2cc(Cl)c(CO)c(S(C)(=O)=O)c2)cc1-n1nncc1-c1ccc(OC(F)(F)F)cc1` [Example 60, {3-chloro-4′-[5-chloro-2-methyl-4-(trifluoromethyl)-1H-imidazol-1-yl]-5-(methylsulfonyl)-3′-(5-{4-[(trifluoromethyl)oxy]phenyl}-1H-1,2,3-triazol-1-yl)biphenyl-4-yl}methanol], it took 245 nM to reach a half-maximal effect (EC50) and the Emax turned out to be 121%.
The like results for `Cc1nc(C(F)(F)F)cn1-c1ccc(-c2cccc(S(C)(=O)=O)c2)cc1-n1nncc1-c1ccc(OC(F)(F)F)cc1F` [Example 61, 5-{2-fluoro-4-[(trifluoromethyl)oxy]phenyl}-1-{3′-(methylsulfonyl)-4-[2-methyl-4-(trifluoromethyl)-1H-imidazol-1-yl]biphenyl-3-yl}-1H-1,2,3-triazole] were, in that order, 265 nM and 87%.

By EC50 is commonly meant the concentration that produces a half-maximal response. The low end stands for an effect from little substance, the high end for a need for much substance.

The values above are taken from patent US9834542B2, “LXR modulators” (BRISTOL-MYERS SQUIBB COMPANY, priority 2013, dated 2017).
